Data: paper PMC5218480 (PLoS ONE, 2017)

System: MV-4-11 cells
Experiment: Gene expression microarray analysis (Affymetrix PrimeView) and GSEA
Format: cell-based, human
Design: RFU PODN (11730768_x_at) / Fold change /veh PODN (11730768_x_at) / RFU LINC00158 (11744669_a_at) / Fold change /veh LINC00158 (11744669_a_at) / RFU DUSP10 (11751237_a_at) / Fold change /veh DUSP10 (11751237_a_at) / RFU ID3 (11757404_x_at) / Fold change /veh ID3 (11757404_x_at) / RFU PLEKHG5 (11737974_s_at) / Fold change /veh PLEKHG5 (11737974_s_at) / RFU LRRC4B (11730491_at) / Fold change /veh LRRC4B (11730491_at) / RFU GIMAP4 (11747438_a_at) / Fold change /veh GIMAP4 (11747438_a_at) / RFU KRT8 (11758183_x_at) / Fold change /veh KRT8 (11758183_x_at) / RFU CNN1 (11734310_a_at) / Fold change /veh CNN1 (11734310_a_at) / RFU VPS37D (11726825_at) / Fold change /veh VPS37D (11726825_at) / RFU C10orf10 (11716522_x_at) / Fold change /veh C10orf10 (11716522_x_at) / RFU KIR2DL2 /// KIR2DL4 /// KIR2DL5A /// KIR2DL5B /// KIR2DS1 /// KIR2DS2 /// KIR2DS3 /// KIR2DS4 /// KIR3DL3 /// KIR3DL3 /// KIR3DS1 (11738374_at) / Fold change /veh KIR2DL2 /// KIR2DL4 /// KIR2DL5A /// KIR2DL5B /// KIR2DS1 /// KIR2DS2 /// KIR2DS3 /// KIR2DS4 /// KIR3DL3 /// KIR3DL3 /// KIR3DS1 (11738374_at) / RFU C1QL1 (11718748_at) / Fold change /veh C1QL1 (11718748_at) / RFU TMPRSS4 (11747572_a_at) / Fold change /veh TMPRSS4 (11747572_a_at) / RFU HAMP (11756126_x_at) / Fold change /veh HAMP (11756126_x_at) / RFU RNFT2 (11725882_a_at) / Fold change /veh RNFT2 (11725882_a_at) / RFU NR4A2 (11747474_a_at) / Fold change /veh NR4A2 (11747474_a_at) / RFU ABCC12 (11746883_a_at) / Fold change /veh ABCC12 (11746883_a_at) / RFU TMEM136 (11760407_x_at) / Fold change /veh TMEM136 (11760407_x_at) / RFU CLDN22 /// WWC2 (11732394_at) / Fold change /veh CLDN22 /// WWC2 (11732394_at) / RFU HLA-DPB1 (11760878_x_at) / Fold change /veh HLA-DPB1 (11760878_x_at) / RFU SPINT1 (11716480_a_at) / Fold change /veh SPINT1 (11716480_a_at) / RFU GAP43 (11754022_s_at) / Fold change /veh GAP43 (11754022_s_at) / RFU A4GNT (11735810_at) / Fold change /veh A4GNT (11735810_at) / RFU PRB3 (11715151_x_at) / Fold change /veh PRB3 (11715151_x_at) / RFU TUBB4B (11761932_at) / Fold change /veh TUBB4B (11761932_at) / RFU CAPN14 (11732068_a_at) / Fold change /veh CAPN14 (11732068_a_at) / RFU TMCC2 (11721928_a_at) / Fold change /veh TMCC2 (11721928_a_at) / RFU IRGQ (11745062_a_at) / Fold change /veh IRGQ (11745062_a_at) / RFU FAM174B (11720279_a_at) / Fold change /veh FAM174B (11720279_a_at) / RFU TMPRSS4 (11748680_a_at) / Fold change /veh TMPRSS4 (11748680_a_at) / RFU FAM212B (11763350_a_at) / Fold change /veh FAM212B (11763350_a_at) / RFU PLEKHG5 (11743358_a_at) / Fold change /veh PLEKHG5 (11743358_a_at) / RFU ZSCAN30 (11745921_a_at) / Fold change /veh ZSCAN30 (11745921_a_at) / RFU CMKLR1 (11741424_a_at) / Fold change /veh CMKLR1 (11741424_a_at) / RFU LOC101060620 /// MAPK8IP1 (11723275_at) / Fold change /veh LOC101060620 /// MAPK8IP1 (11723275_at) / RFU SPTSSB (11747773_x_at) / Fold change /veh SPTSSB (11747773_x_at) / RFU PRSS12 (11739890_at) / Fold change /veh PRSS12 (11739890_at) / RFU BIN1 (11741810_x_at) / Fold change /veh BIN1 (11741810_x_at) / RFU WNT11 (11732464_a_at) / Fold change /veh WNT11 (11732464_a_at) / RFU C10orf10 (11716521_a_at) / Fold change /veh C10orf10 (11716521_a_at) / RFU C5orf56 (11738089_at) / Fold change /veh C5orf56 (11738089_at) / RFU CYB561 (11721691_x_at) / Fold change /veh CYB561 (11721691_x_at) / RFU ANKRD19P (11752326_a_at) / Fold change /veh ANKRD19P (11752326_a_at) / RFU OR2T12 /// OR2T33 /// OR2T8 (11738714_s_at) / Fold change /veh OR2T12 /// OR2T33 /// OR2T8 (11738714_s_at) / RFU VCAN (11748164_a_at) / Fold change /veh VCAN (11748164_a_at) / RFU JSRP1 (11732532_at) / Fold change /veh JSRP1 (11732532_at) / RFU KRTAP10-11 (11738290_x_at) / Fold change /veh KRTAP10-11 (11738290_x_at) / RFU MYO3A (11730013_a_at) / Fold change /veh MYO3A (11730013_a_at) / RFU EBF3 (11725865_a_at) / Fold change /veh EBF3 (11725865_a_at) / RFU CAMK2N1 (11719241_x_at) / Fold change /veh CAMK2N1 (11719241_x_at) / RFU C5orf56 (11738088_a_at) / Fold change /veh C5orf56 (11738088_a_at) / RFU OLFML3 (11715873_a_at) / Fold change /veh OLFML3 (11715873_a_at) / RFU LOC100653217 /// NTM (11731650_a_at) / Fold change /veh LOC100653217 /// NTM (11731650_a_at) / RFU MAPK11 (11762145_a_at) / Fold change /veh MAPK11 (11762145_a_at) / RFU FIZ1 (11724087_x_at) / Fold change /veh FIZ1 (11724087_x_at) / RFU OASL (11726364_x_at) / Fold change /veh OASL (11726364_x_at) / RFU SOX15 (11748057_x_at) / Fold change /veh SOX15 (11748057_x_at) / RFU CD79A (11719716_a_at) / Fold change /veh CD79A (11719716_a_at) / RFU HIST1H1D (11736915_at) / Fold change /veh HIST1H1D (11736915_at) / RFU CASKIN2 (11723855_a_at) / Fold change /veh CASKIN2 (11723855_a_at) / RFU LOC730098 (11760151_x_at) / Fold change /veh LOC730098 (11760151_x_at) / RFU OR4N2 (11742367_at) / Fold change /veh OR4N2 (11742367_at) / RFU PRRT2 (11749266_a_at) / Fold change /veh PRRT2 (11749266_a_at) / RFU SNX32 (11753110_a_at) / Fold change /veh SNX32 (11753110_a_at) / RFU CDHR5 (11726645_a_at) / Fold change /veh CDHR5 (11726645_a_at) / RFU RCAN1 (11760418_a_at) / Fold change /veh RCAN1 (11760418_a_at) / RFU FAM167A (11723789_a_at) / Fold change /veh FAM167A (11723789_a_at) / RFU FAM26E (11764081_at) / Fold change /veh FAM26E (11764081_at) / RFU ISYNA1 (11749810_s_at) / Fold change /veh ISYNA1 (11749810_s_at) / RFU ACY1 (11761880_at) / Fold change /veh ACY1 (11761880_at) / RFU 11764098_at / Fold change /veh 11764098_at / RFU SAMD14 (11745864_x_at) / Fold change /veh SAMD14 (11745864_x_at) / RFU NPB (11741838_a_at) / Fold change /veh NPB (11741838_a_at) / RFU TMPRSS6 (11731388_a_at) / Fold change /veh TMPRSS6 (11731388_a_at) / RFU KRTAP10-2 (11738614_at) / Fold change /veh KRTAP10-2 (11738614_at) / RFU ARHGAP8 /// PRR5-ARHGAP8 (11727945_x_at) / Fold change /veh ARHGAP8 /// PRR5-ARHGAP8 (11727945_x_at) / RFU KRTAP5-7 /// NADSYN1 (11734609_at) / Fold change /veh KRTAP5-7 /// NADSYN1 (11734609_at) / RFU RASL12 (11751679_a_at) / Fold change /veh RASL12 (11751679_a_at) / RFU CDKN2B (11736163_a_at) / Fold change /veh CDKN2B (11736163_a_at) / RFU PRF1 (11729649_at) / Fold change /veh PRF1 (11729649_at) / RFU, ZNF638 /// ZNF638-IT1 / Fold change vs veh, ZNF638 /// ZNF638-IT1 / RFU, PANK3 / Fold change vs veh, PANK3 / RFU, SH3YL1 / Fold change vs veh, SH3YL1 / RFU, ZEB2 / Fold change vs veh, ZEB2 / RFU, NRIP1 / Fold change vs veh, NRIP1 / RFU, PTTG1IP / Fold change vs veh, PTTG1IP / RFU, CAPN2 / Fold change vs veh, CAPN2 / RFU, MED14 / Fold change vs veh, MED14 / RFU, SNORA58 / Fold change vs veh, SNORA58 / RFU, C1orf63 / Fold change vs veh, C1orf63 / RFU, LRRFIP1 / Fold change vs veh, LRRFIP1 / RFU, NDUFAF7 / Fold change vs veh, NDUFAF7 / RFU, SLC12A2 / Fold change vs veh, SLC12A2 / RFU, IBTK / Fold change vs veh, IBTK / RFU, ESF1 / Fold change vs veh, ESF1 / Fold change vs veh, TMEM50B / RFU, TAOK1 / Fold change vs veh, TAOK1 / RFU, ACBD3 / Fold change vs veh, ACBD3 / RFU, TMA16 / Fold change vs veh, TMA16 / RFU, RWDD3 / Fold change vs veh, RWDD3 / RFU, BCAT1 / Fold change vs veh, BCAT1 / RFU, EDEM3 / Fold change vs veh, EDEM3 / RFU, TMEM33 / Fold change vs veh, TMEM33 / RFU, WDR75 / Fold change vs veh, WDR75 / RFU, AHCTF1 / Fold change vs veh, AHCTF1 / RFU, TFRC / Fold change vs veh, TFRC / RFU, ZDHHC17 / Fold change vs veh, ZDHHC17 / RFU, NOM1 / Fold change vs veh, NOM1 / RFU, ARL8B / Fold change vs veh, ARL8B / RFU, ZBTB11 / Fold change vs veh, ZBTB11 / RFU, TAMM41 / Fold change vs veh, TAMM41 / RFU, KIAA1704 /// LOC100996395 / Fold change vs veh, KIAA1704 /// LOC100996395 / RFU, ING1 / Fold change vs veh, ING1 / RFU, TRMT61B / Fold change vs veh, TRMT61B / RFU, FUBP3 / Fold change vs veh, FUBP3 / RFU, TP53 / Fold change vs veh, TP53 / RFU, TNKS2 / Fold change vs veh, TNKS2 / RFU, ZFP14 / Fold change vs veh, ZFP14 / RFU, ACTR2 / Fold change vs veh, ACTR2 / RFU, PPP3R1 / Fold change vs veh, PPP3R1 / RFU, PIK3R1 / Fold change vs veh, PIK3R1 / RFU, HNRNPA1 / Fold change vs veh, HNRNPA1 / RFU, RNF170 / Fold change vs veh, RNF170 / RFU, ZNF28 / Fold change vs veh, ZNF28 / RFU, RNGTT / Fold change vs veh, RNGTT / RFU, OGT / Fold change vs veh, OGT / RFU, BRD1 / Fold change vs veh, BRD1 / RFU, MARS / Fold change vs veh, MARS / RFU, ZNF655 / Fold change vs veh, ZNF655 / RFU, FAHD1 / Fold change vs veh, FAHD1 / RFU, BDP1 / Fold change vs veh, BDP1 / RFU, LRRCC1 / Fold change vs veh, LRRCC1 / RFU, ARID1A / Fold change vs veh, ARID1A / RFU, ZNF146 / Fold change vs veh, ZNF146 / RFU, ZNF330 / Fold change vs veh, ZNF330 / RFU, GPN3 / Fold change vs veh, GPN3 / RFU, C9orf123 / Fold change vs veh, C9orf123 / RFU, N4BP2L2 / Fold change vs veh, N4BP2L2 / RFU, ARFIP1 / Fold change vs veh, ARFIP1 / RFU, FAM179B / Fold change vs veh, FAM179B / RFU, BCL10 / Fold change vs veh, BCL10 / RFU, UHRF1BP1L / Fold change vs veh, UHRF1BP1L / RFU, BET1 / Fold change vs veh, BET1 / RFU, CNOT2 / Fold change vs veh, CNOT2 / RFU, ZNF268 / Fold change vs veh, ZNF268 / Fold change vs veh, ZNF507 / RFU, DGCR2 / Fold change vs veh, DGCR2 / RFU, WDSUB1 / Fold change vs veh, WDSUB1 / Fold change vs veh, HSP90B1 /// MIR3652 / RFU, ADSS / Fold change vs veh, ADSS / RFU, GK / Fold change vs veh, GK / RFU, ZNF148 / Fold change vs veh, ZNF148 / RFU, TAF9 / Fold change vs veh, TAF9 / RFU, SLC1A5 / Fold change vs veh, SLC1A5 / RFU, SLMO2 / Fold change vs veh, SLMO2 / RFU, ABCC4 / Fold change vs veh, ABCC4 / RFU, LOC101060439 /// RAP1B / Fold change vs veh, LOC101060439 /// RAP1B / RFU, RFX7 / Fold change vs veh, RFX7 / RFU, GTPBP10 / Fold change vs veh, GTPBP10 / RFU, CNEP1R1 / Fold change vs veh, CNEP1R1 / RFU, BIVM-ERCC5 /// ERCC5 / Fold change vs veh, BIVM-ERCC5 /// ERCC5 / RFU, ILF3 / Fold change vs veh, ILF3 / RFU 11762660_at / Fold change /veh 11762660_at / RFU VCAN (11757783_s_at) / Fold change /veh VCAN (11757783_s_at) / RFU DDX43 (11728927_at) / Fold change /veh DDX43 (11728927_at) / RFU KRT8 (11758188_x_at) / Fold change /veh KRT8 (11758188_x_at) / RFU NKD1 (11759106_at) / Fold change /veh NKD1 (11759106_at) / RFU SRD5A1 (11742802_a_at) / Fold change /veh SRD5A1 (11742802_a_at) / RFU TPSAB1 /// TPSB2 (11721975_s_at) / Fold change /veh TPSAB1 /// TPSB2 (11721975_s_at) / RFU GSTM3 (11746129_a_at) / Fold change /veh GSTM3 (11746129_a_at) / RFU IL23R (11737362_x_at) / Fold change /veh IL23R (11737362_x_at) / RFU TMEM51 (11727254_a_at) / Fold change /veh TMEM51 (11727254_a_at) / RFU PIWIL2 (11732686_x_at) / Fold change /veh PIWIL2 (11732686_x_at) / RFU ORM1 (11744905_x_at) / Fold change /veh ORM1 (11744905_x_at) / RFU CCDC152 (11743942_at) / Fold change /veh CCDC152 (11743942_at) / RFU ECM1 (11717891_a_at) / Fold change /veh ECM1 (11717891_a_at) / RFU IL23R (11748794_a_at) / Fold change /veh IL23R (11748794_a_at) / RFU TNFAIP8L3 (11732012_x_at) / Fold change /veh TNFAIP8L3 (11732012_x_at) / RFU MBOAT4 (11741988_at) / Fold change /veh MBOAT4 (11741988_at) / RFU 11764193_at / Fold change /veh 11764193_at / RFU TMEM53 (11763286_at) / Fold change /veh TMEM53 (11763286_at) / RFU MAGEB2 (11727129_at) / Fold change /veh MAGEB2 (11727129_at) / RFU TMEM200A (11744735_a_at) / Fold change /veh TMEM200A (11744735_a_at) / RFU CCDC152 (11751479_a_at) / Fold change /veh CCDC152 (11751479_a_at) / RFU FAM211A (11726209_a_at) / Fold change /veh FAM211A (11726209_a_at) / RFU RGS16 (11746705_a_at) / Fold change /veh RGS16 (11746705_a_at) / RFU VCAN (11755009_s_at) / Fold change /veh VCAN (11755009_s_at) / RFU RHOB (11743442_s_at) / Fold change /veh RHOB (11743442_s_at) / RFU RGS16 (11720943_a_at) / Fold change /veh RGS16 (11720943_a_at) / RFU RGS16 (11720944_at) / Fold change /veh RGS16 (11720944_at) / RFU, VPS4B / Fold change vs veh, VPS4B / RFU, CREB1 / Fold change vs veh, CREB1 / RFU, DNAJC13 / Fold change vs veh, DNAJC13 / RFU, GNAQ / Fold change vs veh, GNAQ / RFU, CDK5R1 / Fold change vs veh, CDK5R1 / RFU, ZRANB3 / Fold change vs veh, ZRANB3 / RFU, CUL4A / Fold change vs veh, CUL4A / RFU, CCNY / Fold change vs veh, CCNY / RFU, UFL1 / Fold change vs veh, UFL1 / RFU, COG3 / Fold change vs veh, COG3 / RFU, DIAPH2 / Fold change vs veh, DIAPH2 / RFU, SKA2 / Fold change vs veh, SKA2 / RFU, AFF3 / Fold change vs veh, AFF3 / RFU, LMF1 / Fold change vs veh, LMF1 / RFU, IPO11 / Fold change vs veh, IPO11 / RFU, DFFB / Fold change vs veh, DFFB / RFU, FOXP1 / Fold change vs veh, FOXP1 / RFU, CARD8 / Fold change vs veh, CARD8 / RFU, STRN3 / Fold change vs veh, STRN3 / RFU, ADK / Fold change vs veh, ADK / RFU, RASSF2 / Fold change vs veh, RASSF2 / RFU, WIPF1 / Fold change vs veh, WIPF1 / RFU, LARP1B / Fold change vs veh, LARP1B / RFU, RASA1 / Fold change vs veh, RASA1 / RFU, RB1 / Fold change vs veh, RB1 / RFU, PPFIA1 / Fold change vs veh, PPFIA1 / RFU, MAT2A / Fold change vs veh, MAT2A / RFU, CCT5 / Fold change vs veh, CCT5 / RFU, WDR92 / Fold change vs veh, WDR92 / RFU, CUX1 / Fold change vs veh, CUX1 / RFU, TTC7A / Fold change vs veh, TTC7A / RFU, TMEM135 / Fold change vs veh, TMEM135 / RFU, DEPTOR / Fold change vs veh, DEPTOR / RFU, CPM / Fold change vs veh, CPM / RFU, DNAJB6 / Fold change vs veh, DNAJB6 / RFU, CACNA2D3 / Fold change vs veh, CACNA2D3 / RFU, DTX4 / Fold change vs veh, DTX4 / RFU, TFCP2 / Fold change vs veh, TFCP2 / RFU, GMCL1 /// GMCL1P1 / Fold change vs veh, GMCL1 /// GMCL1P1 / RFU, AEBP2 / Fold change vs veh, AEBP2 / RFU, SNHG1 /// SNORD22 /// SNORD25 /// SNORD26 /// SNORD27 /// SNORD28 /// SNORD29 /// SNORD31 / Fold change vs veh, SNHG1 /// SNORD22 /// SNORD25 /// SNORD26 /// SNORD27 /// SNORD28 /// SNORD29 /// SNORD31 / Fold change (Aza/veh), C12orf56 (ProbeSet 11735607_a_at) / Fold change (ACY-1035/veh), C12orf56 (ProbeSet 11735607_a_at) / Fold change (Aza/veh), FGFR1OP (ProbeSet 11751329_s_at) / Fold change (ACY-1035/veh), FGFR1OP (ProbeSet 11751329_s_at) / Fold change (Aza/veh), VPS36 (ProbeSet 11739960_a_at) / Fold change (ACY-1035/veh), VPS36 (ProbeSet 11739960_a_at) / RFU SYPL1 (11715823_x_at) / Fold change /veh SYPL1 (11715823_x_at) / RFU IGFBP7 (11715501_s_at) / Fold change /veh IGFBP7 (11715501_s_at) / RFU REEP3 (11722064_at) / Fold change /veh REEP3 (11722064_at) / RFU IGLL1 (11728026_x_at) / Fold change /veh IGLL1 (11728026_x_at): dose or concentration left out as unconfirmed
Settings: ProbeSet 11734782_x_at; LIST D

SMILES: Nc1ccc(-c2cccs2)cc1NC(=O)c1ccc2c(c1)cc(C1CC1)n2CCN1CCOCC1 [ACY-1035]
- RFU, WDR92: 63.28 RFU
